Earlier results in patent US8361760B2, “Microbial production of 3-hydroxyacids from glucose and glycolate” (Massachusetts Institute of Technology, priority 2009, dated 2013).

System: CoA-transferase
Set-up: Relative activity: concentration or dose not given beside the values
Conditions: CoA-transferase activity with carboxylic acid added; for Relative activity: relative to None = 100; for Specific Activity: None = 34.1 units/mg

Compound	Relative activity [%]	Specific Activity [units/mg]
C=CC(=O)O [Acrylate]	37	12.7
O=C(O)/C=C/CC(=O)O [(E)-Glutaconate]	94	32.1
C[C@H](O)C(=O)O [(S)-Lactate]	46	15.8
O=C(O)CC[C@@H](O)C(=O)O [(R)-2-Hydroxyglutarate]	87	29.6
CCC(=O)O [Propionate]	20	6.8

Further lines, results first:

Relative activity [%]	Specific Activity [units/mg]	Compound
87	29.6	O=C(O)CCC(=O)O [Succinate]
96	32.8	O=C(O)/C=C/C(=O)O [Fumarate]
27	9.1	C[C@@H](O)C(=O)O [(R)-Lactate]
